The values below come from patent publication US20230287416A1, “COMBINATORY TREATMENT OF SMA WITH SARNA AND MRNA MODULATORS” (RACTIGEN THERAPEUTICS, priority 2020, published 2023).

Format in all cases: cell-based, human
One series concerns SMN2 mRNA. Put plainly: RT-qPCR of SMN2FL and SMN2 Δ7 mRNA in GM03813 cells. The settings on record: for maximum increase of SMN2FL (ceiling effect): GM03813, 72 h (Example 1). The source says:
“GM03813 cells” refers to fibroblast cells provided by Coriell Institute for Medical Research. This cell line is described as SPINAL MUSCULAR ATROPHY, TYPE II; SMA2 SURVIVAL OF MOTOR NEURON 1, TELOMERIC; SMN1. The relevant gene is SMN1; the chromosomal location is 5q12.2-q13.3, the allelic variant is described as 1 exons 7 and 8 deleted, SPINAL MUSCULAR ATROPHY, TYPE I; and the identified mutation: is EX7-8DEL.
Seventy-two hours later, total cellular RNA was isolated from the treated cells and reverse transcribed into cDNA. SMN2 mRNA expression was assessed with RT-qPCR using primer pairs specific for SMN2FL or SMN2 Δ7. SMN2 mRNA expression was also assessed by semi-quantitative RT-PCR using a primer pair that amplifies both SMN2FL and SMN2 Δ7 followed by DdeI digestion (PCR/digestion). […] After digestion, both bands were reduced by 115 bp, resulting in two products: 392 bp (SMN2FL) and 338 bp (SMN2 Δ7) as shown on the gel of FIG. 3D. FIG. 3A-3D show dose-dependent changes in SMN2FL and SMNΔ7 mRNA as assessed by RT-qPCR and PCR/digestion respectively. FIG. 3E-3G are graphic plots of data from quantitating the intensity of bands in FIG. 3D.
(§1) SMA patient derived fibroblasts were obtained from Coriell Institute (Camden, N.J., USA), including GM00232 (SMA type I with 2 copies of SMN2 gene) and GM03813 (SMA type II with 3 copies of SMN2 gene). These cells were cultured at 5% C02 and 37° C. in modified MEM medium (Gibco, Thermo Fisher Scientific, Carlsbad, Calif.) supplemented with 15% bovine calf serum (Sigma-Aldrich), 1% NEAA (Gibco) and 1% penicillin/streptomycin (Gibco). To transfect oligonucleotides including saRNAs, siRNA and ASO, cells were seeded into 6-well plates at a density of 1×10^5 cells/well and were transfected with oligonucleotides at different concentrations using RNAiMax (Invitrogen, Carlsbad, Calif.) according to the reverse transfection protocol provided by the manufacturer for 72 hours (unless otherwise specified). For Risdiplam treatment of cells, Risdiplam (HY-109101, MedChem Express Company, Monmouth Junction, N.J., USA) dissolved in DMSO was added directly to cells at desired concentration for 72 hours unless specified otherwise.
For RNA isolation from cultured cells, total cellular RNA was isolated from treated cells using an RNeasy Plus Mini kit (Qiagen, Hilden, Germany) according to its manual. To isolated RNA from animal tissues, tissues were harvested and stored at RNA later (AM7021, Thermo Fisher). Total RNA was then isolated using MagPure Total RNA Micro LQ kit (Magen, R6621, China) by auto-pure96 machine (ALLSHENG, China). The resultant RNA (1 μg) was reverse transcribed into cDNA by using a PrimeScript RT kit containing gDNA Eraser (Takara, Shlga, Japan). The resultant cDNA was amplified in an ABI 7500 Fast Real-time PCR System (Applied Biosystems; Foster City, Calif.) using SYBR Premix Ex Taq 11 (Takara, Shlga, Japan) reagents and primers which specifically amplified full-length (SMN2FL) or A7 SMN2 mRNA (SMN2 Δ7) (FIG. 1). The reaction conditions were: 95° C. for 3 seconds (1 cycle) and 60° C. for 30 seconds (40 cycles). Amplification of TBP gene served as an internal control.

In series [1] the test system is SMN protein. As to the kind of experiment: Western blotting of SMN protein in GM03813 cells. The settings on record: GM03813, 72 h. The procedure: To further verify the effect of ASO-10-27 and DS06-0004 alone or in combination on SMN2 gene expression, western blotting assays were performed in GM03813 cells transfected individually or in combination with ASO-10-27 and DS06-0004. […] DS06-0004 at 1 nM, 5 nM and 25 nM increased SMN2FL by 1.5-, 1.5- and 1.6-fold, respectively (FIGS. 7B and 7C).
as §1
(§2) Proteins were harvested from transfected cells using 1×RIPA Buffer including protease inhibitors and detected the protein concentration by BCA protein assay kits (Beyotime, P0010, China). To isolated proteins from animal tissues, tissues were harvested and lysed using 1×RIPA Buffer. Protein concentrations were measured by using BCA protein assay kits. Protein electrophoresis was performed (10 ug protein/well) with the use of a sodium dodecyl sulfate polyacrylamide gel electrophoresis (PAGE) gel, which was then transferred to a polyvinylidene difluoride (0.45 μm PVDF) membrane. The membranes were blotted with primary anti-SMN (CST, 19276, USA) or anti-α/β-Tubulin (CST, 2148s, USA) antibodies at 4° C. overnight. After three washes with TBST buffer, the membranes were incubated with anti-IgG, horseradish peroxidase-conjugated secondary antibodies (CST, 7074s and 7076s, USA) for 1 h at room temperature (RT). The membranes were then washed with TBST buffer three times for 10 min each and analyzed by Image Lab (BIO-RAD, Chemistry Doctm MP Imaging System). Band densities of SMN protein and α/β-Tubulin were quantified using ImageJ software.

The subject of series [2] is SMN protein. Put plainly: Western blotting of SMN protein in GM00232 cells. The settings on record: GM00232, 72 h. The protocol: To further verify the effect of ASO-10-27 and DS06-0004 alone or in combination on SMN2 gene expression, western blotting assays were performed in GM00232 cells transfected individually or in combination with ASO-10-27 and DS06-0004. […] DS06-0004 at 1 nM, 5 nM and 25 nM increased SMN2FL by 1.2, 1.3 and 1.7 fold, respectively (FIGS. 5B and 5C).
as §1, §2

Where [3] appears, read: GM03813, 72 h, 1 nM (Example 4, FIG. 6A).
[4] abbreviates: GM03813, 72 h, 5 nM (Example 4).
The mark [5] stands for this setting: GM03813, 72 h, 25 nM (Example 4).
[6] abbreviates: GM03813, 72 h, alone or in combination at 10 nM, RT-qPCR (Example 10, FIG. 12A).
Where [7] appears, read: GM03813, 72 h, 100 nM (Example 1).
[8] abbreviates: GM03813, 72 h, 1 nM (Example 8).
[9] abbreviates: GM03813, 72 h, 1 nM to 50 nM (Example 1, FIG. 3B).
Setting [10] is: GM03813, 72 h, 5 nM (Example 8).
[11] abbreviates: GM03813, 72 h, 25 nM (Example 8).

As to Nusinersen [ASO-10-27], the “maximum increase of SMN2FL (ceiling effect)” value with SMN2 mRNA is given as around 2 fold. The “SMN2FL mRNA fold change” value with SMN2 mRNA (GM03813, 72 h, 1 nM (Example 1, FIG. 3A)) was 1.5 fold; in the series on SMN2 mRNA (setting [3]), 1.2 fold; in the series on SMN2 mRNA (setting [4]), 2.1 fold; in the series with SMN2 mRNA (GM03813, 72 h, 5 nM, peak increase (Example 1, FIG. 3A)), 2.0 fold; in the series on SMN2 mRNA (setting [5]), 2.1 fold; in the series with SMN2 mRNA (setting [6]), 1.4 fold. For the same molecule, the “SMN2 Δ7 mRNA change” value with SMN2 mRNA (GM03813, 72 h, 1 nM, 5 nM and 25 nM (Example 4)) is on record as “decrease”; with SMN2 mRNA (GM03813, 72 h, 5 nM (Example 1)), “decrease”. In addition, in the series with SMN2 mRNA (setting [6]), the “SMN2 Δ7 mRNA fold change” value worked out at 0.3 fold. The “SMN protein fold change” value in the series on SMN protein [1] (1 nM (Example 5, FIG. 7)) came to 1.2 fold; in the series with SMN protein [1] (5 nM (Example 5)), 1.5 fold; in the series on SMN protein [1] (25 nM (Example 5)), 1.9 fold; in the series with SMN protein [1] (alone or in combination at 10 nM (Example 10, FIG. 12D-12E)) it was 2.3 fold; in the series on SMN protein [2] (1 nM (Example 3, FIG. 5)), 1.4 fold; in the series on SMN protein [2] (5 nM (Example 3)), 2.3 fold. Further, the “SMN protein fold change” value with SMN protein [2] (25 nM (Example 3)) was found to be 2.9 fold.
As for `Cc1cn2nc(-c3cc(=O)n4cc(N5CCNC6(CC6)C5)ccc4n3)cc(C)c2n1` [Risdiplam], in the series on SMN2 mRNA, the “maximum increase of SMN2FL (ceiling effect)” value is given as around 2 fold. For the same molecule, the “SMN2FL mRNA fold change” value with SMN2 mRNA (GM03813, 72 h, 50 nM (Example 8, FIG. 10A-10C)) is listed as 1.0 fold; in the series with SMN2 mRNA (GM03813, 72 h, 100 nM (Example 1, FIG. 3C)), 1.2 fold; in the series with SMN2 mRNA (GM03813, 72 h, 250 nM (Example 8)), 1.4 fold; with SMN2 mRNA (GM03813, 72 h, 1000 nM (Example 1, FIG. 3C)), 1.8 fold; with SMN2 mRNA (GM03813, 72 h, 1250 nM (Example 8)) it was 2.1 fold. Further, in the series with SMN2 mRNA (GM03813, 72 h, 50 nM, 250 nM and 1250 nM (Example 8)), the “SMN2 Δ7 mRNA change” value is reported as “decrease”. Further, the “decrease of SMN2 Δ7 mRNA” value with SMN2 mRNA (setting [7]) is recorded as 36%; in the series with SMN2 mRNA (GM03813, 72 h, 1000 nM (Example 1)), 98%. Also, the “SMN protein fold change” value in the series on SMN protein [1] (50 nM (Example 9, FIG. 11)) is on record as 1.1 fold; with SMN protein [1] (250 nM (Example 9)) it was 1.7 fold; with SMN protein [2] (50 nM (Example 7, FIG. 9)), 1.7 fold; in the series with SMN protein [2] (250 nM (Example 7)), 1.9 fold; in the series on SMN protein [2] (1250 nM (Example 7)), 2.6 fold.
“DS06-0004: saRNA targeting SMN2 promoter at -281; SEQ ID NO: 476/477 (Table 8: SEQ ID NO: 131/288) (chain 1 AGACGAGGCCUAAGCAACATT; chain 2 UGUUGCUUAGGCCUCGUCUTT; chemistry not given here)”: the “SMN2 Δ7 mRNA fold change” value was 2.5 fold in the series on SMN2 mRNA (GM03813, 72 h, 1 nM (Example 4)); 1.8 fold with SMN2 mRNA (setting [8]); 2.5 fold in the series with SMN2 mRNA (setting [4]); 2.3 fold with SMN2 mRNA (setting [10]); 2.1 fold in the series on SMN2 mRNA (setting [5]); 2.3 fold in the series on SMN2 mRNA (setting [11]). Also, the “SMN2FL mRNA fold change” value is reported as 2.1 fold with SMN2 mRNA (setting [3]); 1.7 fold with SMN2 mRNA (setting [8]); 2.6 fold with SMN2 mRNA (setting [4]); 2.2 fold in the series with SMN2 mRNA (setting [10]); 2.2 fold in the series on SMN2 mRNA (setting [5]); 2.3 fold in the series on SMN2 mRNA (setting [11]). Further, the “highest fold change of SMN2FL mRNA” value with SMN2 mRNA (setting [9]) was 2.9 fold. Moreover, the “highest fold change of SMN2 Δ7 mRNA” value in the series on SMN2 mRNA (setting [9]) was determined as 2.7 fold. For the same molecule, the “SMN2 mRNA expression” value in the series with SMN2 mRNA (setting [7]) was “did not further increase”. Further, the “SMN protein fold change” value is recorded as 1.5 fold in the series with SMN protein [1] (1 nM (Example 5, FIG. 7)); 1.5 fold in the series on SMN protein [1] (5 nM (Example 5)); 1.6 fold in the series with SMN protein [1] (25 nM (Example 5)); 1.2 fold with SMN protein [2] (1 nM (Example 3, FIG. 5)); 1.3 fold with SMN protein [2] (5 nM (Example 3)); 1.7 fold in the series with SMN protein [2] (25 nM (Example 3)).
